According to US6184209A, “Diabetes treatment” (Alizyme Therapeutics Limited, priority 1996, dated 2001):
Where a SMILES comes first, the peptide text is derived from it.

Assays:
EDL muscles--female mice = assay: 2-deoxy-D-[1-3H]glucose uptake into EDL muscles, female mice; assay type: cell-based; conditions: 10^-7 M; for increase in the uptake of 2-deoxy-D-glucose into the muscles (%): normal female mice
Procedure: (§1) Isolated soleus, EDL (extensor digitorum longus) or diaphragm muscles of normal male and female mice were incubated for 30 min at 37° C. in oxygenated Krebs buffer containing 2-deoxy-D-[1-^3 H]glucose. 2-Deoxy-D-glucose is a derivative of D-glucose which is taken up into muscle by carrier-mediated transport and which accumulates in muscle as 2-deoxy-D-glucose-6-phosphate without further metabolism. The tritiated derivative can therefore be used to determine the uptake into muscle of D-glucose (which itself is metabolised). A COOH-terminal (C-terminal) fragment of β-endorphin and an analogue of a β-endorphin fragment were added to the Krebs buffer. These were the C-terminal dipeptide (glycyl-L-glutamine or glycyl-L-glutamic acid) and CH3 CO-Lys-D-Lys-Sar-Glu, a stable analogue of the C-terminal tetrapeptide of β-endorphin. Pyruvate (2 mM) and 2% bovine serum albumen were also present in the bathing medium surrounding the muscles. The extracellular space in the muscles was determined by including L-[1-^14 C] glucose, which is not transported into muscle via the D-glucose membrane carrier.
(§2) At the end of the incubation period, the tissue samples were digested in 1 M NaOH at 90° C. and the radioactivity counted by liquid scintillation counting.
d) EDL muscles--female mice
Following the procedure outlined in Example 1, it was shown that Gly-Gin in a concentration of 10^-7 M caused a 180% increase in 2-deoxy-D-glucoseuptake in EDL muscles of normal female mice, whilst with Gly-Glu there was an 80% increase.

dopamine-depleted rats = conditions: rat, in vivo; cited from earlier work
urodele limb = conditions: in vivo; cited from earlier work
EDL muscles--male mice = assay: 2-deoxy-D-[1-3H]glucose uptake into EDL muscles, male mice; assay type: cell-based; conditions: 10^-9 M
Procedure: as §1, §2
c) EDL muscles--male mice

[1] = tested on: Diaphragm muscles--female mice; assay: 2-deoxy-D-[1-3H]glucose uptake into diaphragm muscles, female mice; assay type: cell-based; conditions: 10^-8 M
Procedure: as §1, §2
e) Diaphragm muscles--female mice

[2] = tested on: Isolated soleus muscles--male mice; assay: 2-deoxy-D-[1-3H]glucose uptake into isolated soleus muscles, male mice; assay type: cell-based; conditions: 10^-9 M
Procedure: as §1, §2
a) Isolated soleus muscles--male mice

[3] = tested on: Isolated soleus muscles--female mice; assay: 2-deoxy-D-[1-3H]glucose uptake into isolated soleus muscles, female mice; assay type: cell-based; conditions: 10^-8 M
Procedure: as §1, §2
b) Isolated soleus muscles--female mice

[4] = tested on: subjects with non-insulin dependent diabetes mellitus (type II); conditions: type II diabetics, cited from earlier work
[5] = 2.5 mg by intravenous bolus injection

## NCC(=O)N[C@@H](CCC(N)=O)C(=O)O [Gly-Gin, glycyl-L-glutamine] (H-Gly-Gln-OH)
EDL muscles--female mice
  increase in the uptake of 2-deoxy-D-glucose into the muscles (%): 180%

## NCC(=O)N[C@@H](CCC(=O)O)C(=O)O [Gly-Glu, glycyl-L-glutamic acid] (H-Gly-Glu-OH)
EDL muscles--female mice
  increase in the uptake of 2-deoxy-D-glucose into the muscles (%): 80%

## Lys-Lys-Gly-Glu (KKGE; printed: Lys-Lys-Gly-Glu) [MPF]
dopamine-depleted rats
  turning response of dopamine-depleted rats to D-amphetamine: significant reductions
Urodele limb
  urodele limb regeneration: promoting

## insulin
EDL muscles--male mice
  increase in the uptake of 2-deoxy-D-glucose into the muscles (%): 150%
  increase in the uptake of 2-deoxy-D-glucose into the muscles (fold): 2.5 fold
EDL muscles--female mice; female mice
  increase in the uptake of 2-deoxy-D-glucose into the muscles (fold): 3.5 fold
EDL muscles--female mice
  increase in the uptake of 2-deoxy-D-glucose into the muscles (%): 250%
[1]
  increase in the uptake of 2-deoxy-D-glucose into the muscles (fold): similar
[2]
  increase in the uptake of 2-deoxy-D-glucose into the muscles (%): 500%
  increase in the uptake of 2-deoxy-D-glucose into the muscles (fold): 6 fold
[3]
  increase in the uptake of 2-deoxy-D-glucose into the muscles (%): ~100%
  increase in the uptake of 2-deoxy-D-glucose into the muscles (fold): approximately 2 fold

## β-endorphin (YGGFMTSEKSQTPLVTLFKNAIIKNAYKKGE; Beta-endorphin; UniProt P01189 237-267, looked up) [human β-endorphin]
[4]; [5]
  duration of increments in plasma insulin and glucagon: up to 90 minutes
  plasma concentrations of insulin and glucagon: prompt and simultaneous increments
[4]; administration one hour after start of three hour study period
  progressive decline in plasma glucose: effect of administration: substantially unaffected
